Key:
in vitro = assay: in vitro
Outline: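 Cytoprotection read-out: CellTiter-Glo chemiluminescence after 5 days at 37 °C of HIV-IIIb-infected MT-4 cells (m.o.i. 0.003) with compound in 10-point 3-fold dilutions, quadruplicate, 10% FBS. Cytotoxicity (CC50) measured identically without virus.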

HIV-IIIb = assay: Test A: Antiviral assay in MT4 cells; assay type: cell-based, HIV-1; settings: Human immunodeficiency virus 1, IIIB, MT4, 120 h, read-out: % inhibition at 2 μM, percent inhibition of virus-induced cell killing, from dose response curve at 2 uM drug; MT-4 cells infected with HIV-IIIb, 5 days, CellTiter-Glo
[1] = human, uninfected MT-4 cells, CC50 (nM), same protocol as Test A, CellTiter-Glo

Row | SMILES | CC50 at 5 days (in vitro; [1]) [nM] | inhibition at 2 µM (HIV-IIIb) [%] | CC50 at 5 days (in vitro; human, CC50 (nM), uninfected MT-4 cells, same protocol as Test A, CellTiter-Glo) [nM]
1 | Cc1ccc2c(ccn2CC(=O)N[C@@H](Cc2cc(F)cc(F)c2)c2ncccc2-c2ccc(F)c(C(N)=O)c2)c1 [Example 547, (S)-5-(2-(2-(3,5-difluorophenyl)-1-(2-(5-methyl-1H-indol-1-yl)acetamido)ethyl)pyridin-3-yl)-2-fluorobenzamide] | 13300 | 45 | –
2 | O=C1Cc2cc(-c3cccnc3[C@H](Cc3cc(F)cc(F)c3)NC(=O)Cn3nc(C(F)F)c4c3C(F)(F)CCC4(F)F)ccc2N1 [Example 548D, (S)-2-(3-(difluoromethyl)-4,4,7,7-tetrafluoro-4,5,6,7-tetrahydro-1H-indazol-1-yl)-N-(2-(3,5-difluorophenyl)-1-(3-(2-oxoindolin-5-yl)pyridin-2-yl)ethyl)acetamide] | 10100 | 54 | –
3 | NCc1ccc2c(CC(=O)N[C@@H](Cc3cc(F)cc(F)c3)c3ncccc3-c3ccc(Cl)cc3)c[nH]c2c1 [Example 549, (S)-2-(6-(aminomethyl)-1H-indol-3-yl)-N-(1-(3-(4-chlorophenyl)pyridin-2-yl)-2-(3,5-difluorophenyl)ethyl)acetamide] | 10200 | 38 | –
4 | NC(=O)c1cc(-c2cccnc2[C@H](Cc2cc(F)cc(F)c2)NC(=O)Cn2ncc3c(Cl)cc(Cl)cc32)ccc1F [Example 550, (S)-5-(2-(1-(2-(4,6-dichloro-1H-indazol-1-yl)acetamido)-2-(3,5-difluorophenyl)ethyl)pyridin-3-yl)-2-fluorobenzamide] | 17000 | 1 | –
5 | NC(=O)c1cc(-c2cccnc2[C@H](Cc2cc(F)cc(F)c2)NC(=O)Cn2nc(C(F)(F)F)c3c2C(=O)CC3(F)F)ccc1F [Example 551, (S)-5-(2-(1-(2-(4,4-difluoro-6-oxo-3-(trifluoromethyl)-5,6-dihydrocyclopenta[c]pyrazol-1(4H)-yl)acetamido)-2-(3,5-difluorophenyl)ethyl)pyridin-3-yl)-2-fluorobenzamide] | > 53200 | 0 | –
6 | C=Cc1c(C(F)F)nn(CC(=O)N[C@@H](Cc2cc(F)cc(F)c2)c2ncccc2-c2ccc(F)c(C(N)=O)c2)c1C(F)F [Example 553, (S)-5-(2-(1-(2-(3,5-bis(difluoromethyl)-4-vinyl-1H-pyrazol-1-yl)acetamido)-2-(3,5-difluorophenyl)ethyl)pyridin-3-yl)-2-fluorobenzamide] | 23800 | 11 | –
7 | NC(=O)c1cc(-c2cccnc2[C@H](Cc2cc(F)cc(F)c2)NC(=O)Cn2nc(C(F)F)c(Br)c2C(F)F)ccc1F [Example 555C, (S)-5-(2-(1-(2-(4-bromo-3,5-bis(difluoromethyl)-1H-pyrazol-1-yl)acetamido)-2-(3,5-difluorophenyl)ethyl)pyridin-3-yl)-2-fluorobenzamide] | 25500 | 14 | –
8 | NCc1ccc2[nH]cc(CC(=O)N[C@@H](Cc3cc(F)cc(F)c3)c3ncccc3-c3cccc(C(N)=O)c3)c2c1 [Example 556, (S)-3-(2-(1-(2-(5-(aminomethyl)-1H-indol-3-yl)acetamido)-2-(3,5-difluorophenyl)ethyl)pyridin-3-yl)benzamide] | 47800 | 83 | –
9 | CC(C)(C)OC(=O)NCc1ccc2[nH]cc(CC(=O)N[C@@H](Cc3cc(F)cc(F)c3)c3ncccc3-c3ccc(Cl)cc3)c2c1 [Example 557, (S)-tert-butyl (3-(2-(1-(3-(4-chlorophenyl)pyridin-2-yl)-2-(3,5-difluorophenyl)ethylamino)-2-oxoethyl)-1H-indol-5-yl)methylcarbamate] | 7860 | 73 | –
10 | O=C(Cn1nc(C(F)F)c2c1C(F)(F)CCC2(F)F)N[C@@H](Cc1cc(F)cc(F)c1)c1ncccc1-c1ccc2cc[nH]c(=O)c2c1 [Example 559D, (S)-2-(3-(difluoromethyl)-4,4,7,7-tetrafluoro-4,5,6,7-tetrahydro-1H-indazol-1-yl)-N-(2-(3,5-difluorophenyl)-1-(3-(1-oxo-1,2-dihydroisoquinolin-7-yl)pyridin-2-yl)ethyl)acetamide] | 23100 | 96 | –
11 | NC(=O)c1cccc(-c2cccnc2[C@H](Cc2cc(F)cc(F)c2)NC(=O)Cc2c[nH]c3ccc(N)cc23)c1 [Example 560, (S)-3-(2-(1-(2-(5-amino-1H-indol-3-yl)acetamido)-2-(3,5-difluorophenyl)ethyl)pyridin-3-yl)benzamide] | > 53000 | 112 | –
12 | NC(=O)c1cc(-c2cccnc2[C@H](Cc2cc(F)cc(F)c2)NC(=O)Cn2nc(C(F)(F)F)c3c2C(=O)C2CC32)ccc1F (stereo partly drawn) [Example 561B, 5-(2-((1S)-2-(3,5-difluorophenyl)-1-(2-(5-oxo-3-(trifluoromethyl)-3b,4,4a,5-tetrahydro-1H-cyclopropa[3,4]cyclopenta[1,2-c]pyrazol-1-yl)acetamido)ethyl)pyridin-3-yl)-2-fluorobenzamide] | 29000 | 8 | –
13 | NC(=O)c1cc(-c2cccnc2[C@H](Cc2cc(F)cc(F)c2)NC(=O)Cn2c3c(c4ccccc42)CCCC3)ccc1F [Example 563, (S)-5-(2-(2-(3,5-difluorophenyl)-1-(2-(3,4-dihydro-1H-carbazol-9(2H)-yl)acetamido)ethyl)pyridin-3-yl)-2-fluorobenzamide] | 27000 | 62 | –
14 | Cc1cc2ncn(CC(=O)N[C@@H](Cc3cc(F)cc(F)c3)c3ncccc3-c3ccc(F)c(C(N)=O)c3)c2cc1C [Example 564, (S)-5-(2-(2-(3,5-difluorophenyl)-1-(2-(5,6-dimethyl-1H-benzo[d]imidazol-1-yl)acetamido)ethyl)pyridin-3-yl)-2-fluorobenzamide] | 10300 | 100 | –
15 | NC(=O)c1cc(-c2cccnc2[C@H](Cc2cc(F)cc(F)c2)NC(=O)Cn2c(=O)n(C3=CCCCC3)c3ccccc32)ccc1F [Example 567, (S)-5-(2-(1-(2-(3-cyclohexenyl-2-oxo-2,3-dihydro-1H-benzo[d]imidazol-1-yl)acetamido)-2-(3,5-difluorophenyl)ethyl)pyridin-3-yl)-2-fluorobenzamide] | 15800 | 11 | –
16 | NC(=O)c1cc(-c2cccnc2[C@H](Cc2cc(F)cc(F)c2)NC(=O)Cn2ccc3cc(F)c(Cl)cc32)ccc1F [Example 568, (S)-5-(2-(1-(2-(6-chloro-5-fluoro-1H-indol-1-yl)acetamido)-2-(3,5-difluorophenyl)ethyl)pyridin-3-yl)-2-fluorobenzamide] | 11400 | 42 | –
17 | NC(=O)c1cccc(-c2cccnc2[C@H](Cc2cc(F)cc(F)c2)NC(=O)Cc2ccccn2)c1 [Example 569, (S)-3-(2-(2-(3,5-difluorophenyl)-1-(2-(pyridin-2-yl)acetamido)ethyl)pyridin-3-yl)benzamide] | > 53000 | 11 | –
18 | NC(=O)c1cc(-c2cccnc2[C@H](Cc2cc(F)cc(F)c2)NC(=O)Cn2cc(C(F)(F)F)cn2)ccc1F [Example 570, (S)-5-(2-(2-(3,5-difluorophenyl)-1-(2-(4-(trifluoromethyl)-1H-pyrazol-1-yl)acetamido)ethyl)pyridin-3-yl)-2-fluorobenzamide] | > 53200 | 5 | –
19 | NC(=O)c1cc(-c2cccnc2[C@H](Cc2cc(F)cc(F)c2)NC(=O)Cn2c3c(c4ccccc42)C(=O)CCC3)ccc1F [Example 574D, (S)-5-(2-(2-(3,5-difluorophenyl)-1-(2-(4-oxo-3,4-dihydro-1H-carbazol-9(2H)-yl)acetamido)ethyl)pyridin-3-yl)-2-fluorobenzamide] | – | 24 | 52500
20 | Cc1cc2cc(F)ccc2n1CC(=O)N[C@@H](Cc1cc(F)cc(F)c1)c1ncccc1-c1cccc(C(N)=O)c1 [Example 575B, (S)-3-(2-(2-(3,5-difluorophenyl)-1-(2-(5-fluoro-2-methyl-1H-indol-1-yl)acetamido)ethyl)pyridin-3-yl)benzamide] | 17400 | 14 | –
21 | COC1CN(C(=O)c2cc(C(C)C)n(CC(=O)N[C@@H](Cc3cc(F)cc(F)c3)c3ncccc3-c3ccc(F)c(C(N)=O)c3)n2)C1 [Example 576B, (S)-5-(2-(2-(3,5-difluorophenyl)-1-(2-(5-isopropyl-3-(3-methoxyazetidine-1-carbonyl)-1H-pyrazol-1-yl)acetamido)ethyl)pyridin-3-yl)-2-fluorobenzamide] | > 53200 | 2 | –
22 | NC(=O)c1cc(-c2cccnc2[C@H](Cc2cc(F)cc(F)c2)NC(=O)Cn2c(CN3CCOCC3)nc3ccccc32)ccc1F [Example 577, (S)-5-(2-(2-(3,5-difluorophenyl)-1-(2-(2-(morpholinomethyl)-1H-benzo[d]imidazol-1-yl)acetamido)ethyl)pyridin-3-yl)-2-fluorobenzamide] | > 53200 | 20 | –
23 | NC(=O)c1cc(-c2cccnc2[C@H](Cc2cc(F)cc(F)c2)NC(=O)C(CO)c2ccccc2)ccc1F (stereo partly drawn) [Example 578, 5-(2-((1S)-2-(3,5-difluorophenyl)-1-(3-hydroxy-2-phenylpropanamido)ethyl)pyridin-3-yl)-2-fluorobenzamide] | > 53200 | 15 | –
24 | COC1CN(C(=O)Cc2c(C)n(CC(=O)N[C@@H](Cc3cc(F)cc(F)c3)c3ncccc3-c3ccc(F)c(C(N)=O)c3)c3ccccc23)C1 [Example 579D, (S)-5-(2-(2-(3,5-difluorophenyl)-1-(2-(3-(2-(3-methoxyazetidin-1-yl)-2-oxoethyl)-2-methyl-1H-indol-1-yl)acetamido)ethyl)pyridin-3-yl)-2-fluorobenzamide] | > 53200 | 18 | –

Source: patent publication US9540343B2 (Gilead Sciences, Inc., priority 2011, dated 2017)
